From PubChem BioAssay (NCI)
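Each compound was tested at five concentrations against cells in 96-well plates for 48 hours. The concentration for full growth arrest is given as TGI.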

Columns and labels:
Assay in all cases: NCI tumour cell line growth inhibition, 48 h
A549 NSCLC = test system: A549 NSCLC
ACHN renal = test system: ACHN renal
CCRF-CEM leukemia = test system: CCRF-CEM leukemia
DMS 273 small cell lung = test system: DMS 273 small cell lung
HCC-2998 colon = test system: HCC-2998 colon
HCT-116 colon = test system: HCT-116 colon
HCT-15 colon = test system: HCT-15 colon
HL-60(TB) leukemia = test system: HL-60(TB) leukemia
HOP-18 NSCLC = test system: HOP-18 NSCLC
HT29 colon = test system: HT29 colon
IGROV1 ovarian = test system: IGROV1 ovarian
K-562 leukemia = test system: K-562 leukemia
KM12 colon = test system: KM12 colon
LOX IMVI melanoma = test system: LOX IMVI melanoma
LXFL 529 NSCLC = test system: LXFL 529 NSCLC
M14 melanoma = test system: M14 melanoma
M19-MEL melanoma = test system: M19-MEL melanoma
MALME-3M melanoma = test system: MALME-3M melanoma
MOLT-4 leukemia = test system: MOLT-4 leukemia
NCI-H226 lung = test system: NCI-H226 lung
NCI-H23 lung = test system: NCI-H23 lung
NCI-H460 lung = test system: NCI-H460 lung
NCI-H522 lung = test system: NCI-H522 lung
OVCAR-3 ovarian = test system: OVCAR-3 ovarian
OVCAR-4 ovarian = test system: OVCAR-4 ovarian
OVCAR-8 ovarian = test system: OVCAR-8 ovarian
RXF 393 renal = test system: RXF 393 renal
SF-268 CNS = test system: SF-268 CNS
SF-295 CNS = test system: SF-295 CNS
SF-539 CNS = test system: SF-539 CNS
SK-MEL-2 melanoma = test system: SK-MEL-2 melanoma
SK-MEL-28 melanoma = test system: SK-MEL-28 melanoma
SK-MEL-5 melanoma = test system: SK-MEL-5 melanoma
SK-OV-3 ovarian = test system: SK-OV-3 ovarian
SN12C renal = test system: SN12C renal
SNB-19 CNS = test system: SNB-19 CNS
SNB-75 CNS = test system: SNB-75 CNS
SNB-78 CNS = test system: SNB-78 CNS
TK-10 renal = test system: TK-10 renal
U251 CNS = test system: U251 CNS
UACC-257 melanoma = test system: UACC-257 melanoma
UACC-62 melanoma = test system: UACC-62 melanoma
UO-31 renal = test system: UO-31 renal
XF 498 CNS = test system: XF 498 CNS
786-0 renal = test system: 786-0 renal
A498 renal = test system: A498 renal
BT-549 breast = test system: BT-549 breast
CAKI-1 renal = test system: CAKI-1 renal
COLO 205 colon = test system: COLO 205 colon
DU-145 prostate = test system: DU-145 prostate
EKVX NSCLC = test system: EKVX NSCLC
HOP-62 NSCLC = test system: HOP-62 NSCLC
HOP-92 NSCLC = test system: HOP-92 NSCLC
HS 578T breast = test system: HS 578T breast
MCF7 breast = test system: MCF7 breast
MDA-MB-231 breast = test system: MDA-MB-231 breast
MDA-MB-435 = test system: MDA-MB-435
MDA-N = test system: MDA-N
NCI/ADR-RES ovarian = test system: NCI/ADR-RES ovarian
OVCAR-5 ovarian = test system: OVCAR-5 ovarian
PC-3 prostate = test system: PC-3 prostate
RPMI-8226 leukemia = test system: RPMI-8226 leukemia
SR leukemia = test system: SR leukemia
SW-620 colon = test system: SW-620 colon
T-47D breast = test system: T-47D breast

O=c1c2ccccc2[nH]c2cc(O)cc(O)c12
TGI (A549 NSCLC): > 100 µM | TGI (ACHN renal): > 100 µM | TGI (CCRF-CEM leukemia): > 100 µM | TGI (DMS 273 small cell lung): > 100 µM | TGI (HCC-2998 colon): > 100 µM | TGI (HCT-116 colon): > 100 µM | TGI (HCT-15 colon): > 100 µM | TGI (HL-60(TB) leukemia): > 100 µM | TGI (HOP-18 NSCLC): > 100 µM | TGI (HT29 colon): > 100 µM | TGI (IGROV1 ovarian): > 100 µM | TGI (K-562 leukemia): > 100 µM | TGI (KM12 colon): > 100 µM | TGI (LOX IMVI melanoma): > 100 µM | TGI (LXFL 529 NSCLC): > 100 µM | TGI (M14 melanoma): > 100 µM | TGI (M19-MEL melanoma): > 100 µM | TGI (MALME-3M melanoma): > 100 µM | TGI (MOLT-4 leukemia): > 100 µM | TGI (NCI-H226 lung): > 100 µM | TGI (NCI-H23 lung): > 100 µM | TGI (NCI-H460 lung): > 100 µM | TGI (NCI-H522 lung): 86.3 µM | TGI (OVCAR-3 ovarian): > 100 µM | TGI (OVCAR-4 ovarian): > 100 µM | TGI (OVCAR-8 ovarian): > 100 µM | TGI (RXF 393 renal): > 100 µM | TGI (SF-268 CNS): > 100 µM | TGI (SF-295 CNS): > 100 µM | TGI (SF-539 CNS): > 100 µM | TGI (SK-MEL-2 melanoma): > 100 µM | TGI (SK-MEL-28 melanoma): > 100 µM | TGI (SK-MEL-5 melanoma): 85 µM | TGI (SK-OV-3 ovarian): > 100 µM | TGI (SN12C renal): > 100 µM | TGI (SNB-19 CNS): > 100 µM | TGI (SNB-75 CNS): > 100 µM | TGI (SNB-78 CNS): > 100 µM | TGI (TK-10 renal): > 100 µM | TGI (U251 CNS): > 100 µM | TGI (UACC-257 melanoma): > 100 µM | TGI (UACC-62 melanoma): > 100 µM | TGI (UO-31 renal): > 100 µM | TGI (XF 498 CNS): > 100 µM

CC(C)(C)[C@H]1CCC2(OCCO2)[C@](O)(CCCO)C1
TGI (786-0 renal): > 100 µM | TGI (A498 renal): > 100 µM | TGI (A549 NSCLC): > 100 µM | TGI (ACHN renal): > 100 µM | TGI (BT-549 breast): > 100 µM | TGI (CAKI-1 renal): > 100 µM | TGI (CCRF-CEM leukemia): > 100 µM | TGI (COLO 205 colon): > 100 µM | TGI (DU-145 prostate): > 100 µM | TGI (EKVX NSCLC): > 100 µM | TGI (HCC-2998 colon): > 100 µM | TGI (HCT-116 colon): > 100 µM | TGI (HCT-15 colon): > 100 µM | TGI (HL-60(TB) leukemia): > 100 µM | TGI (HOP-62 NSCLC): > 100 µM | TGI (HOP-92 NSCLC): > 100 µM | TGI (HS 578T breast): > 100 µM | TGI (HT29 colon): > 100 µM | TGI (IGROV1 ovarian): > 100 µM | TGI (K-562 leukemia): > 100 µM | TGI (KM12 colon): > 100 µM | TGI (LOX IMVI melanoma): > 100 µM | TGI (M14 melanoma): > 100 µM | TGI (MALME-3M melanoma): > 100 µM | TGI (MCF7 breast): > 100 µM | TGI (MDA-MB-231 breast): > 100 µM | TGI (MDA-MB-435): > 100 µM | TGI (MDA-N): > 100 µM | TGI (MOLT-4 leukemia): > 100 µM | TGI (NCI-H226 lung): > 100 µM | TGI (NCI-H23 lung): > 100 µM | TGI (NCI-H460 lung): > 100 µM | TGI (NCI-H522 lung): > 100 µM | TGI (NCI/ADR-RES ovarian): > 100 µM | TGI (OVCAR-3 ovarian): > 100 µM | TGI (OVCAR-4 ovarian): > 100 µM | TGI (OVCAR-5 ovarian): > 100 µM | TGI (OVCAR-8 ovarian): > 100 µM | TGI (PC-3 prostate): > 100 µM | TGI (RPMI-8226 leukemia): > 100 µM | TGI (RXF 393 renal): > 100 µM | TGI (SF-268 CNS): > 100 µM | TGI (SF-295 CNS): > 100 µM | TGI (SF-539 CNS): > 100 µM | TGI (SK-MEL-2 melanoma): > 100 µM | TGI (SK-MEL-28 melanoma): > 100 µM | TGI (SK-MEL-5 melanoma): > 100 µM | TGI (SK-OV-3 ovarian): > 100 µM | TGI (SN12C renal): > 100 µM | TGI (SNB-19 CNS): > 100 µM | TGI (SNB-75 CNS): > 100 µM | TGI (SR leukemia): > 100 µM | TGI (SW-620 colon): > 100 µM | TGI (T-47D breast): > 100 µM | TGI (TK-10 renal): > 100 µM | TGI (U251 CNS): > 100 µM | TGI (UACC-257 melanoma): > 100 µM | TGI (UACC-62 melanoma): > 100 µM | TGI (UO-31 renal): > 100 µM
